Results: EP0139005A1, “ANTITUMOR COMPOSITION, METHOD FOR TREATING TUMOR, AND USE OF THE COMPOSITION FOR TREATING TUMOR” (Yoshitomi Pharmaceutical Industries, Ltd., priority 1982, dated 1984)

Columns and labels:
[1] = test system: Ehrlich carcinoma; assay: Ehrlich carcinoma implanted subcutaneously, tumor weight (Experimental Example 7); assay type: in vivo, male ICR mice; settings: once daily for seven days, 24 hours after final administration, control 399.5 mg
Description: A plurality of groups each consisting of six male ICR mice (7-8 weeks old) were respectively implanted subcutaneously with […] Ehrlich carcinoma. After 24 hours, Y-6430 dissolved in physiological saline was administered intraperitoneally once daily for seven days. 24 hours after the final administration, the test animals were killed by ether anesthesia, and the carcinoma of each test animal was exercised and weighed.

[2] = test system: AH272 hepatoma; assay: AH272 hepatoma, survival (Experimental Example 8); assay type: in vivo, male Donryu rats; settings: once daily from third to sixth day, control 7.9 days
Description: A plurality of groups each consisting of six male Donryu rats (7-8 weeks old) were implanted with 2 x 10^6 cells of AH272 hepatoma. After the implantation, Y-6430 dissolved in physiological saline was administered intraperitoneally once daily within the period from the third to sixth day, and the average survival days were calculated, the result being shown in Table 9.
All the test animals were dead within 30 days.

[3] = test system: IMC carcinoma; assay: IMC carcinoma implanted intraperitoneally, survival (Experimental Example 1); assay type: in vivo, female CDF1 mice; settings: for 30-day Survivors / Average Survival Time / Life-Prolongation Ratio (%): once daily for seven days
Description: A plurality of groups each consisting of five heads of female CDF1 mice (7-8 weeks old) were implanted intraperitoneally with 10^6 cells of IMC carcinoma. After 24 hours, Y-6430 was respectively administered once daily for seven days, and average survival times, life-prolongation ratios and 30-day survivors were calculated.
The life-prolongation ratio was calculated by the following scheme (the same scheme is applied to the subsequent experimental examples).
Life-prolongation Ratio [formula] T : Average survival days of the treated group
C : Average survival days of the control group
Animals survived over 30 days or longer were estimated as 30-day survivors, and the cases where T/C equals to or greater than 125% were regarded as effective.

CCOC(=O)[C@@H](N)CSC(=O)NC.Cl [Y-6430, S-methylcarbamoyl-L-cysteine ethyl ester hydrochloride]
Average Tumor Weight ([1]; 50 mg/kg/day i.p.): 194.0 mg
Average Tumor Weight ([1]; 100 mg/kg/day i.p.): 146.6 mg
Average Survival Time ([2]; 100 mg/kg/day i.p.): 10.5 days
Average Survival Time ([2]; 250 mg/kg/day i.p.): 15.0 days
30-day Survivors ([3]; 100 mg/kg/day i.p.): 0/5
Average Survival Time ([3]; 100 mg/kg/day i.p.): 24.0 days
Life-Prolongation Ratio (%) ([3]; 100 mg/kg/day i.p.): 218%
30-day Survivors ([3]; 100 mg/kg/day p.o.): 0/5
Average Survival Time ([3]; 100 mg/kg/day p.o.): 12.6 days
Life-Prolongation Ratio (%) ([3]; 100 mg/kg/day p.o.): 115%
30-day Survivors ([3]; 250 mg/kg/day i.p.): 1/5
Average Survival Time ([3]; 250 mg/kg/day i.p.): 25.0 days
Life-Prolongation Ratio (%) ([3]; 250 mg/kg/day i.p.): 227%
30-day Survivors ([3]; 250 mg/kg/day p.o.): 0/5
Average Survival Time ([3]; 250 mg/kg/day p.o.): 18.2 days
Life-Prolongation Ratio (%) ([3]; 250 mg/kg/day p.o.): 165%
30-day Survivors ([3]; 500 mg/kg/day i.p.): 1/5
Average Survival Time ([3]; 500 mg/kg/day i.p.): 27.0 days
Life-Prolongation Ratio (%) ([3]; 500 mg/kg/day i.p.): 245%
30-day Survivors ([3]; 500 mg/kg/day p.o.): 0/5
Average Survival Time ([3]; 500 mg/kg/day p.o.): 21.0 days
Life-Prolongation Ratio (%) ([3]; 500 mg/kg/day p.o.): 191%
30-day Survivors ([3]; 1,000 mg/kg/day p.o.): 0/5
Average Survival Time ([3]; 1,000 mg/kg/day p.o.): 23.0 days
Life-Prolongation Ratio (%) ([3]; 1,000 mg/kg/day p.o.): 209%
effectiveness against IMC carcinoma ([3]; administered orally or intraperitoneally, T/C equal to or greater than 125% regarded as effective): effective
